Patent US20140178433A1, “[…] INCREASED ANTIGENIC MASS” (priority 2012, published 2014)

Legend:
[1] = tested on: Leptospira of serogroup Icterohaemorrhagiae; assay: Biomass (total cell count, Petroff-Hausser counting chamber) of fermenter culture, serogroup Icterohaemorrhagiae; format: cell-based, L. interrogans (sensu lato)
Experimental: (§1) During all fermentation experiments the temperature was controlled at about 29° C. The medium was aerated with headspace airflow, and the dissolved oxygen (pO2) concentration was controlled by automatic variation of the agitation-rate, to maintain a set pO2 concentration. Temperature, pH and pO2 concentration were monitored online, but pH and foam formation were not controlled.
Supplementation was done either with pure linoleic acid (Sigma Aldrich, >99% pure) as a 10% v/v stock in absolute ethanol (JT Baker). Alternatively, linoleic acid was supplemented by using a BSA that was created with a high level of linoleic acid (high LA BSA). This high LA BSA was used either to replace a standard BSA in EMJH medium, or was used in addition to BSA in the EMJH medium, in which case it was added as a 25% w/v stock solution in sterile water. The high LA BSA or the pure linoleic acid/ethanol supplements were fed to a fermentor over the course of 4 hours, at 0.1-0.2 ml/hour, until the fermentor culture had received a desired total amount of linoleic acid. Different total available levels of linoleic acid have been tested, of between about 5 and 425 μg/ml in the total volume. The fermenter cultures of Leptospira were supplemented at different cell-densities i.e. at early-, mid- or end phase culture. […]

[2] = tested on: Leptospira of serogroup Icterohaemorrhagiae; assay: Antigenic mass of fermenter culture by antigen Elisa, serogroup Icterohaemorrhagiae; format: cell-based, L. interrogans (sensu lato); settings: for antigenic mass: average of days 3-5; for Ag. mass, average of days 4-5, Ag U/10^9 cells/ml: standard BSA, total 105 μg/ml; for Ag. mass, average of days 3-5, Ag U/10^9 cells/ml: EMJH with standard BSA; for relative Ag. mass (%), average of days 4-5: relative to non-supplemented = 100; for Ag U/10^9 cells/ml, at 3 days: different BSA ingredients in EMJH medium, no supplementation
Experimental: as §1
(§2) Supplementation was done either with pure linoleic acid (Sigma Aldrich, >99% pure) as a 10% v/v stock in absolute ethanol (JT Baker). Alternatively, linoleic acid was supplemented by using a BSA that was created with a high level of linoleic acid (high LA BSA). This high LA BSA was used either to replace a standard BSA in EMJH medium, or was used in addition to BSA in the EMJH medium, in which case it was added as a 25% w/v stock solution in sterile water. The high LA BSA or the pure linoleic acid/ethanol supplements were fed to a fermentor over the course of 4 hours, at 0.1-0.2 ml/hour, until the fermentor culture had received a desired total amount of linoleic acid. Different total available levels of linoleic acid have been tested, of between about 5 and 425 μg/ml in the total volume. The fermenter cultures of Leptospira were supplemented at different cell-densities i.e. at early-, mid- or end phase culture. Typical mid-phase cell density was at about 5×10̂8 cells/ml, which was reached during day 2 of the main incubation. Upon supplementation with linoleic acid from the pure linoleic acid in ethanol stock, sometimes a small decrease in pH was noted, which was corrected by applying some NaOH.
(§3) 2004. Royal Tropical Institute, Amsterdam.
An arbitrary number of antigen units is affixed to the sample, for example: 1000 Units/ml.

[3] = tested on: Leptospira from serogroup Grippotyphosa; assay: Antigenic mass of fermenter culture by antigen Elisa, serogroup Grippotyphosa; format: cell-based, L. interrogans (sensu lato); settings: for Antigenic mass, 2 day average, Ag U/10^9 cells/ml: average of days 4 and 5
Experimental: as §2, §3
(§4) In a next study it was confirmed that the increase in antigenic mass upon supplementation with linoleic acid is a general phenomenon in Leptospira. In several experiments cultures of Leptospira strains from several serogroups were proliferated in fermenters in similar set-ups as before and with a similar supplementation: in EMJH medium with either standard BSA or with high LA BSA; some cultures were further supplemented with 100 μg/ml linoleic acid, from pure linoleic acid in ethanol. Results of analyses of biomass and antigen amount are presented in FIGS. 6-7 (Sejroe), and 8-9 (Grippotyphosa), and are summarised in Table 5.
For serogroup Grippotyphosa the scores were averaged over days 4 and 5 of the culture.

[4] = tested on: Leptospira culture; assay: Linoleic acid supplementation of a Leptospira culture, serogroup not stated; format: cell-based
Experimental: as §2

[5] = tested on: Leptospira from serogroup Australis (serovar Bratislava); assay: Antigenic mass of fermenter culture by antigen Elisa, serogroup Australis; format: cell-based, L. interrogans (sensu lato)
Experimental: as §2, §3, §4
Similarly, for serogroup Australis (serovar Bratislava), an increase in antigenic mass with 45% was observed; here the low LA BSA medium was used for supplementation.

[6] = tested on: Leptospira from serogroup Sejroe (serovar Hardjo); assay: Antigenic mass of fermenter culture by antigen Elisa, serogroup Sejroe; format: cell-based, L. interrogans (sensu lato); settings: for Antigenic mass, 2 day average, Ag U/10^9 cells/ml: average of days 5 and 6
Experimental: as §2, §3, §4
Some increase in biomass was observed after supplementation, but the increase in antigen amount was much higher. The fermenter was run for 6 days, and scores for these experiments were averaged over days 5 and 6 of the culture.

[7] = 100 μg/ml added, total 125 μg/ml, relative to high LA BSA culture = 100
[8] = 100 μg/ml pure linoleic acid in ethanol added to high LA BSA medium, C18:2 total 125 μg/ml
[9] = EMJH with high LA BSA, C18:2 total 25 μg/ml
[10] = EMJH with high LA BSA, C18:2 total 25 μg/ml, serves as reference = 100

Compound: CCCCCC=CCC=CCCCCCCCC(=O)O [linoleic acid, 9,12-octadecadienoic acid]
- toxicity for the bacteria (cell numbers decreased rapidly after supplementation) ([1]; 400 μg/ml pure linoleic acid in ethanol, EMJH with high LA BSA): induced toxicity
- antigenic mass ([2]; 100 μg/ml pure linoleic acid in ethanol added on day 2 (mid-exponential), EMJH with high LA BSA): 1767 Ag. U/1×10̂9 cells
- Ag. mass, average of days 4-5, Ag U/10^9 cells/ml ([2]; 100 μg/ml pure linoleic acid in ethanol supplemented at 1 × 10^8 cells/ml (early phase)): 1783 Ag U/10^9 cells/ml
- Ag. mass, average of days 4-5, Ag U/10^9 cells/ml ([2]; 100 μg/ml pure linoleic acid in ethanol supplemented at 5 × 10^8 cells/ml (mid phase)): 1564 Ag U/10^9 cells/ml
- Ag. mass, average of days 4-5, Ag U/10^9 cells/ml ([2]; 100 μg/ml pure linoleic acid in ethanol supplemented at 9 × 10^8 cells/ml (late phase)): 1656 Ag U/10^9 cells/ml
- increase in antigenic mass after supplementation at different phases ([2]; 100 μg/ml, early-, mid-, late exponential phase, sampling at 2, 4 and 8 hours after the suppletion): acute increase in antigenic mass can be induced at all phases of the Leptospira culture
- increase of the antigenic mass ([2]; 200 μg/ml pure linoleic acid in ethanol, EMJH with high LA BSA): slightly less increase of the antigenic mass compared to that of the 100 μg/ml group
- increase of the antigenic mass ([2]; exemplary increase following application of the method (linoleic acid supplementation)): 121%
- Ag. mass, average of days 3-5, Ag U/10^9 cells/ml ([2]; supplemented 75 μg/ml in mid-exponential phase, C18:2 total 80 μg/ml): 1450 Ag U/10^9 cells/ml
- relative Ag. mass (%), average of days 3-5 ([2]; supplemented 75 μg/ml, C18:2 total 80 μg/ml, relative to non-supplemented culture with standard BSA = 100): 199%
- Ag. mass, average of days 3-5, Ag U/10^9 cells/ml ([2]; supplemented 150 μg/ml in mid-exponential phase, C18:2 total 155 μg/ml): 1550 Ag U/10^9 cells/ml
- relative Ag. mass (%), average of days 3-5 ([2]; supplemented 150 μg/ml, C18:2 total 155 μg/ml, relative to non-supplemented culture with standard BSA = 100): 213%
- relative Ag. mass (%), average of days 4-5 ([2]; supplemented at 1 × 10^8 cells/ml, 100 μg/ml): 226%
- relative Ag. mass (%), average of days 4-5 ([2]; supplemented at 5 × 10^8 cells/ml, 100 μg/ml): 198%
- relative Ag. mass (%), average of days 4-5 ([2]; supplemented at 9 × 10^8 cells/ml, 100 μg/ml): 210%
- relative Ag. mass (%) [3, 7]: 163%
- Antigenic mass, 2 day average, Ag U/10^9 cells/ml [3, 8]: 8286 Ag U/10^9 cells/ml
- increase of the antigenic mass ([3]; supplementation with linoleic acid (100 μg/ml) of high LA BSA medium): 63%
- increase of the antigenic mass ([4]; 25 μg linoleic acid available per ml of culture compared to about 5 μg/ml): significant increase of the antigenic mass
- toxicity ([4]; highest availability level tested, 425 μg/ml, preparation of pure linoleic acid): some toxicity was noticeable for some serovars
- relative Ag. mass (%) ([5]; 100 μg/ml added, total 105 μg/ml, relative to non-supplemented culture = 100): 145%
- Antigenic mass, 2 day average, Ag U/10^9 cells/ml ([5]; 100 μg/ml pure linoleic acid added to low LA BSA medium, C18:2 total 105 μg/ml): 12822 Ag U/10^9 cells/ml
- increase of the antigenic mass ([5]; supplementation of low LA BSA medium): 45%
- relative Ag. mass (%) [6, 7]: 284%
- Antigenic mass, 2 day average, Ag U/10^9 cells/ml [6, 8]: 814 Ag U/10^9 cells/ml
- increase of the antigenic mass ([6]; supplementation with 100 μg/ml linoleic acid of high LA BSA culture medium): 184%

Compound: BSA, BovoLep ®: BSA (Bovogen, Australia) recommended for Leptospira culture; standard BSA enriched with a number of vegetable fatty acids
- effect on biomass of Leptospira ([1]; BSA ingredient in EMJH medium): did increase the biomass
- effect on antigenic mass ([2]; BSA ingredient in EMJH medium): no significant effect
- Ag U/10^9 cells/ml, at 3 days [2]: 498 Ag U/10^9 cells/ml

Compound: BSA, BovoStar ®: a standard all-purpose BSA from the same manufacturer (Bovogen)
- Ag U/10^9 cells/ml, at 3 days [2]: 533 Ag U/10^9 cells/ml

Compound: BSA, Millipore: a standard commercial BSA (Millipore)
- Ag U/10^9 cells/ml, at 3 days [2]: 525 Ag U/10^9 cells/ml

Compound: high LA BSA: BSA that was created with a high level of linoleic acid
- increase of antigenic mass ([2]; 25 instead of 5 μg/ml linoleic acid available): 124%
- antigenic mass ([2]; high LA BSA at 1% w/v in EMJH, 25 μg/ml linoleic acid available): 1636 Ag U/1×10̂9 cells
- Ag. mass, average of days 3-5, Ag U/10^9 cells/ml ([2]; supplemented 50 μg/ml linoleic acid as high LA BSA solution, C18:2 total 55 μg/ml): 1612 Ag U/10^9 cells/ml
- relative Ag. mass (%), average of days 3-5 ([2]; supplemented 50 μg/ml linoleic acid as high LA BSA, C18:2 total 55 μg/ml, relative to non-supplemented culture = 100): 221%
- Antigenic mass, 2 day average, Ag U/10^9 cells/ml [3, 9]: 5074 Ag U/10^9 cells/ml
- relative Ag. mass (%) [3, 10]: 100%
- Antigenic mass, 2 day average, Ag U/10^9 cells/ml [6, 9]: 287 Ag U/10^9 cells/ml
- relative Ag. mass (%) [6, 10]: 100%
